Values of other authors in patent US20090263514A1, “Cold and flu tonic” (priority 2008, published 2009).

Conditions: in humans

O=C(/C=C/C=C/c1ccc2c(c1)OCO2)N1CCCCC1 [piperine]
bioavailability of curcumin: enhance bioavailability of curcumin dramatically
